Data from ChEMBL document CHEMBL1201862, “PubChem BioAssay data set” (2004).
Active and inactive are the calls of the source.

Tests used:
[1] = target: Cytochrome P450 2D6 (Homo sapiens, UniProt P10635);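 note: CYP2D6 member of a cytochrome P450 panel assay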
[2] = target: Cytochrome P450 2C9 (Homo sapiens, UniProt P11712)
[3] = target: Cytochrome P450 2C19 (Homo sapiens, UniProt P33261); assay: Cytochrome panel assay with activity outcomes. Panel member name: p450-cyp2c19 Compounds with AC50 equal or less than 10 uM are considered active; assay type: functional
[4] = target: Cytochrome P450 3A4 (Homo sapiens, UniProt P08684);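 note: CYP3A4 tested as one member of a cytochrome P450 panel screen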
[5] = target: T1, Rac GTPase-activating protein 1 (Homo sapiens, UniProt Q9H0H5); assay: blockers of MgcRacGAP-driven Rac1 GTP hydrolysis – biochemical, ADP Hunter fluorescence, primary and confirmatory, confirmation (AID 624330); assay type: functional
T1 sequence (Q9H0H5 whole entry): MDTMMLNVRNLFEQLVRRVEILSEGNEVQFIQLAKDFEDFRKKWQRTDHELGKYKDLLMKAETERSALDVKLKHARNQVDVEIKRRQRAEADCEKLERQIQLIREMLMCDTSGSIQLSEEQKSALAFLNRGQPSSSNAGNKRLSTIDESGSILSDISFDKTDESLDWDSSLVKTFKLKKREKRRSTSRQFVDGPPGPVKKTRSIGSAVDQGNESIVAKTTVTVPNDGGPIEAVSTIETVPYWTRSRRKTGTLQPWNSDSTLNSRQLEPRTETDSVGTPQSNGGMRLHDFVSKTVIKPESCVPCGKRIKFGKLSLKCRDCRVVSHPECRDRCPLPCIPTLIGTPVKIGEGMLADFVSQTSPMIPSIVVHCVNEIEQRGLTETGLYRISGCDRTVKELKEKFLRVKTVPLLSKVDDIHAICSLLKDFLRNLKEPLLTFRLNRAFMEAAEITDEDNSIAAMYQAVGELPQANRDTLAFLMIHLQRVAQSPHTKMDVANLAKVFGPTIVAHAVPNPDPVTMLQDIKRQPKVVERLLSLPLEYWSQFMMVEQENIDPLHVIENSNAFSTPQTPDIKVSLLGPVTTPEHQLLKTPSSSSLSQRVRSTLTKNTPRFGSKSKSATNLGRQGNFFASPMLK

[6] = system: INS1; assay: INS-1E survival protection against cytokine death – cell-based, luminescence, retest, dose response (AID 449756); assay type: functional; details: Rattus norvegicus;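 note: cell death triggered by IL-1 beta plus TNF-alpha plus IFN-gamma mixture; protective hits raise ATP signal compared with cytokine alone wells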
[7] = Luminescence Cell-Based Dose Retest to Confirm Inhibitors of Cancer Stem Cells. [Related pubchem assays (depositor defined):AID2717, AID2721]; assay type: functional; details: Homo sapiens
[8] = system: Streptococcus; assay: GAS UMAA2166 growth inhibition – luminescence, BacTiterGlo, counter-screen for streptokinase expression inhibitor project, dose response (AID 1915); assay type: functional, organism-based;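 note: potency for reduction of bacterial viability or growth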
[9] = system: Streptococcus sp. 'group A'; assay: Streptococcus pyogenes SK(-)GAS viability under kanamycin – luminescence, BacTiterGlo, confirmation, counter-screen for streptokinase expression inhibitor project, dose response (AID 1900); assay type: functional, organism-based
[10] = target: T2, Corticotropin-releasing factor receptor 2/Corticotropin-releasing factor-binding protein (Homo sapiens, UniProt P24387+Q13324); assay: activators of CRF receptor 2 with binding protein – uHTS hits, confirmation (AID 602473); assay type: functional; details: read-out: EC50_Mean
T2 sequence (Q13324 whole entry): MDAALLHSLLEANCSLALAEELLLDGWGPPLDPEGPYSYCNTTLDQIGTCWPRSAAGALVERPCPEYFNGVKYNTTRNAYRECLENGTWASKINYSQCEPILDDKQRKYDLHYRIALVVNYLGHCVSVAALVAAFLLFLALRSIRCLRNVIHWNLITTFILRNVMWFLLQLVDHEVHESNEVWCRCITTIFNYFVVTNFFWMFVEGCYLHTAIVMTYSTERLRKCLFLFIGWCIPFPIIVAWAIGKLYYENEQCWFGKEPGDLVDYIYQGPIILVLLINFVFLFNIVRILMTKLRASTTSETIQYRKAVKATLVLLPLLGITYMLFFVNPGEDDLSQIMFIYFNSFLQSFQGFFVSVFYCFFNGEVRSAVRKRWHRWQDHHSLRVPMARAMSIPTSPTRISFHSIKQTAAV
T2 sequence (P24387 whole entry): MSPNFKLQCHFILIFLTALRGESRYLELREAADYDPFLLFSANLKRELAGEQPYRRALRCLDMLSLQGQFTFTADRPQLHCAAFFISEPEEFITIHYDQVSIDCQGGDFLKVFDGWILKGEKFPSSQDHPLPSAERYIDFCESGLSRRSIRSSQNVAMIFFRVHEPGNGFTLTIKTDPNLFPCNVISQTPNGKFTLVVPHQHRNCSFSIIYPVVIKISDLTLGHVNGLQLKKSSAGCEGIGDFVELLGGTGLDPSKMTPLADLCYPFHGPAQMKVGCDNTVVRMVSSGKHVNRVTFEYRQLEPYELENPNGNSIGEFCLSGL

[11] = NIH3T3 cell viability loss – ATP luminescence, mouse fibroblasts, counter-screen, dose response (AID 2010); assay type: functional, cell-based;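 note: cells exposed to compound for about 90 hours before reading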
[12] = Trypanosoma cruzi growth suppression in host cells – NIH3T3 host cells, beta-gal luminescence, confirmation (AID 2044); assay type: functional, cell-based;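 note: intracellular parasites grown in NIH/3T3 mouse fibroblasts as host cells; luminescent beta-galactosidase reporter signal from transgenic T. cruzi replicating inside host cells; inhibitors lower the luminescence signal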

Chain of Cytochrome P450 2D6 (P10635 whole entry): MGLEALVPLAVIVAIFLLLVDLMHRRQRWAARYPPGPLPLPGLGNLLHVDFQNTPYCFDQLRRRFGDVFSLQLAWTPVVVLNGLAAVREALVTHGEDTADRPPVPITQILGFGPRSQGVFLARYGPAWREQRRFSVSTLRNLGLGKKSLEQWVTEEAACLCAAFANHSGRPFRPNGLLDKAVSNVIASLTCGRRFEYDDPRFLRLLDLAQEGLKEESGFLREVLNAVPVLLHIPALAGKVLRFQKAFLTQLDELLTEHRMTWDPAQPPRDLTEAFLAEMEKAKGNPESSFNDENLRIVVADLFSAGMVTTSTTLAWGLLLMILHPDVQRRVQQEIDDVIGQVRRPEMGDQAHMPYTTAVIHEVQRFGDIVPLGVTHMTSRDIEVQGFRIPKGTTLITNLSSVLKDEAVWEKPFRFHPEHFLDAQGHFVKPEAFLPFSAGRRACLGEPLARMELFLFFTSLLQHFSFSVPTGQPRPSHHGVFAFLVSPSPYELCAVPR
Chain of Cytochrome P450 2C9 (P11712 whole entry): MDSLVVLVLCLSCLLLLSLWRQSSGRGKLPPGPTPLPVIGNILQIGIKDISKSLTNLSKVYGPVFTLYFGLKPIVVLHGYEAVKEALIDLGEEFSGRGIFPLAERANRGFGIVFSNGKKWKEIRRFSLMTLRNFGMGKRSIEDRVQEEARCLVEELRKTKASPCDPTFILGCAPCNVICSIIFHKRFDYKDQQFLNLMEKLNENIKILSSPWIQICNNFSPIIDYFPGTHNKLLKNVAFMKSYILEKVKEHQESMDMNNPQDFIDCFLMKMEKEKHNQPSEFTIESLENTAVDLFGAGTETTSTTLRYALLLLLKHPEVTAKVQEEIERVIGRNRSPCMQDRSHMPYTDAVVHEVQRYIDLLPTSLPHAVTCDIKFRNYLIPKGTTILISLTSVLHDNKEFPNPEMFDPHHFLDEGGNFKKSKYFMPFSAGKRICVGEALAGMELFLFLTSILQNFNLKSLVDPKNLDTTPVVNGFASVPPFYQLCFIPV
Chain of Cytochrome P450 3A4 (P08684 whole entry): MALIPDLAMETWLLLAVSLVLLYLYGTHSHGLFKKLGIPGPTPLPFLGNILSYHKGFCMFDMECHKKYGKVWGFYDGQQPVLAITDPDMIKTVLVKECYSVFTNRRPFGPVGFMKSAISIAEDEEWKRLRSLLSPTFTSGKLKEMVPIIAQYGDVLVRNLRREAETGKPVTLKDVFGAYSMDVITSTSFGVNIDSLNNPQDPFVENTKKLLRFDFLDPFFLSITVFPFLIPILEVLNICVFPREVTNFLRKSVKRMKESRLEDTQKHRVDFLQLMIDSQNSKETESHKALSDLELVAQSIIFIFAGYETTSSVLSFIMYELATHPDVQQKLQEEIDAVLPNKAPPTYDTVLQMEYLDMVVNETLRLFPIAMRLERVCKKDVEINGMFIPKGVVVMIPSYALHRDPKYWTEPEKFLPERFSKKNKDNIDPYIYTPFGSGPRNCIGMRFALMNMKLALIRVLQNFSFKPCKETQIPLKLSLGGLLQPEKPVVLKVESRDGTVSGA
Chain of Cytochrome P450 2C19 (P33261 whole entry): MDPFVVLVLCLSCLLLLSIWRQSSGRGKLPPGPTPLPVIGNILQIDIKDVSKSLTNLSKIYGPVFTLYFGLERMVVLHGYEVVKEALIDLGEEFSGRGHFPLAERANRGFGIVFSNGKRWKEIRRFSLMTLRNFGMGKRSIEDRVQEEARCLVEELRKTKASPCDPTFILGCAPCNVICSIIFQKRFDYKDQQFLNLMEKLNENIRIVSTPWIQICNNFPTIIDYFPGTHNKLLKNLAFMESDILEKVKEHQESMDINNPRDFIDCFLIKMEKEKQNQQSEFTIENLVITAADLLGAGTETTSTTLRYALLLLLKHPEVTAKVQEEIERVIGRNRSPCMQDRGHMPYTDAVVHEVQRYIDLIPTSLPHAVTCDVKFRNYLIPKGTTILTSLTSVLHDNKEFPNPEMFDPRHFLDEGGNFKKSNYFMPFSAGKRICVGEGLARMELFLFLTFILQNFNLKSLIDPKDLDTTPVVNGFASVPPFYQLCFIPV

Oc1ccccc1CNCc1ccccc1O
AC50 [1]: 3.16 µM (inconclusive)

Cc1ccc(OCC(=O)NNC(=O)C2CCN(c3ncccn3)CC2)cc1
AC50 [2]: 14.1 µM (inconclusive) | AC50 ([3]; read-out: AC50): 0.501 µM (inconclusive) | AC50 [4]: 20 µM (inconclusive)

Cc1cc(Cl)cc2sc(S)nc12
IC50 [5]: 85.4 µM (active)

O=C(CSc1ccccc1)Nc1ccc(NC(=O)c2ccco2)cc1
AC50 [2]: 20 µM (inconclusive) | AC50 ([3]; read-out: AC50): 14.1 µM (inconclusive)

Cc1nn(C(C)C(=O)Nc2sc3c(c2C#N)CCCC3)c(C)c1[N+](=O)[O-] (centres undefined)
AC50 [2]: 3.98 µM (inconclusive)

CCC(CO)Oc1cc(NCc2ccc(C)c(C)c2)c2ncn(C(C)C)c2c1 (centres undefined)
AC50 [6]: 5.86 µM (active)

CNC(=S)N(Cc1cccs1)Cc1cc2cc(OC)c(OC)cc2nc1O
AC50 [6]: 99.3 µM (active)

Cc1ccc(CNC(=O)C2(NC(=O)Nc3ccc(C)cc3)CCCCC2)cc1
AC50 [2]: 3.55 µM (inconclusive) | AC50 ([3]; read-out: AC50): 1.78 µM (inconclusive)

COc1ccc(-c2sc3ccc(OC)cc3c2C#CCCO)cc1
AC50 [7]: 2.88 µM (active) | EC50 [8]: 9.32 µM (active) | EC50 [9]: 7.3 µM (active)

CN(Cc1ccccc1)Cc1c(O)ccc2ccccc12
IC50 [5]: 89.3 µM (active)

Cn1c([N+](=O)[O-])cnc1CN1CCN(CCO)CC1
AC50 [3]: inconclusive

Cc1ccccc1OCCC(=O)Nc1cc(S(=O)(=O)N2CCCCC2)ccc1N1CCN(C)CC1
EC50 [10]: 9.71 µM (active)

COc1ccc(C(=O)c2c(C)c3ccccc3n2CC(O)CNC(C)C)cc1 (centres undefined)
AC50 [6]: 30.1 µM (active)

CCOc1cc(N2CCOCC2)c(OCC)cc1NC(=O)c1ccc(C)s1
IC50 [5]: 70.8 µM (active)

O=C(NC1(Cc2ccccc2)CCN(CCCc2ccccc2)C1=O)c1ccccc1 (centres undefined)
AC50 [6]: 2.75 µM (active)

C/C(CCN1CCc2nc(-c3ccccc3)c(-c3ccccc3)cc2C1)=N\O[C@@H](C)c1cc(-c2c(C)cc(C)cc2C)no1
AC50 [2]: 0.316 µM (inconclusive) | AC50 ([3]; read-out: AC50): 0.00631 µM (inconclusive) | AC50 [4]: 3.98 µM (inconclusive)

Cc1ccc(NC(=O)NCC2CCN(Cc3cccc(Cl)c3)CC2)cc1Cl
AC50 [6]: 12.8 µM (active) | EC50 [11]: > 60 µM (not active) | EC50 [12]: 1.03 µM (active) | AC50 [7]: 8.54 µM (active)

O=C(NCc1ccco1)c1cc(C(=O)C2CCCCC2)c[nH]1
AC50 [2]: 8.91 µM (inconclusive) | AC50 ([3]; read-out: AC50): 14.1 µM (inconclusive)

COC(=O)c1ccc(C(=O)OCCCc2nc3cc(N)ccc3[nH]2)cc1
IC50 [5]: 110 µM (active)

Cc1nc2cnc(N3CCNCC3)nc2n(Cc2cccs2)c1=O
AC50 [1]: 12.6 µM (inconclusive)

O=C(CNC(=O)c1ccco1)N/N=C/c1ccc(O)cc1O
IC50 [5]: 104 µM (active)

CN(C(=O)COc1cccc(Br)c1)C1CCS(=O)(=O)C1 (centres undefined)
AC50 ([3]; read-out: AC50): 22.4 µM (inconclusive)

COC(=O)c1[nH]c2ccc(Cl)cc2c1NC(=O)Oc1ccccc1
IC50 [5]: 19.8 µM (active)

COc1ccc(CN2CCCC(C(=O)N3CCCC3)C2)cc1 (centres undefined)
IC50 [5]: 109 µM (active)

O=C1CCCC2=C1C(c1ccc(OS(=O)(=O)c3ccc(Cl)cc3)cc1)C1=C(CCCC1=O)O2
AC50 [1]: 12.6 µM (inconclusive)

CN1/C(=C/C=C(/C#N)C(N)=O)C(C)(C)c2ccccc21
AC50 [2]: 28.2 µM (inconclusive) | AC50 [4]: 22.4 µM (inconclusive)

CN(C)C(=O)c1ccc(-c2ccc3ncnc(Nc4ccc(F)cc4)c3c2)cc1
AC50 ([3]; read-out: AC50): 25.1 µM (inconclusive)

COc1cc(/C=C/C(=O)OCC(=O)NC2CCS(=O)(=O)C2)ccc1O (centres undefined)
IC50 [5]: 47.1 µM (active)

CCC1CCCCN1Cc1cc(OC)c(O)c([N+](=O)[O-])c1 (centres undefined)
AC50 [1]: 14.1 µM (inconclusive)

CC(C)NC(=O)N1CCN(c2ccncc2S(=O)(=O)N2CCOCC2)CC1
AC50 [2]: 35.5 µM (inconclusive) | AC50 ([3]; read-out: AC50): 39.8 µM (inconclusive)

COc1ccccc1N1CCNCC1
AC50 [3]: inconclusive

COc1cc(C(C)n2nnc3ccccc32)ccc1O (centres undefined)
IC50 [5]: 108 µM (active)

CCOc1cc(/C=N/Nc2ncc(C)c(O)n2)ccc1O
IC50 [5]: 32.1 µM (active)

COc1ccc(S(=O)(=O)N2CCC(N3CCCCC3)CC2)cc1
AC50 ([3]; read-out: AC50): 39.8 µM (inconclusive)

CSc1nc2ccccc2cc1/C=C(\C#N)c1ccc(Cl)cc1Cl
AC50 [1]: 1.58 µM (inconclusive)

CN(C)S(=O)(=O)c1ccc(C(=O)Nc2ccc(CN3CCCC3)cc2)cc1
AC50 [2]: 1.78 µM (inconclusive)

C=CCc1cccc(/C=N/NC(=O)c2ccccc2OC)c1O
AC50 [6]: 3.06 µM (active) | EC50 [11]: > 60 µM (not active) | EC50 [12]: 2.2 µM (active)

COc1cc(C)ccc1OCCOc1cc(C)ccc1Cl
AC50 ([3]; read-out: AC50): 5.62 µM (inconclusive)

CCCc1nnc(NC(=O)Cn2c(=O)oc3cc(Br)ccc32)s1
EC50 [10]: 9.87 µM (active)

CC(=O)c1ccc(OCc2cc(C(=O)N3CCCCC3c3cccnc3)no2)cc1 (centres undefined)
AC50 [6]: 14.3 µM (active)

COCC(=O)N1CCC2(CCCN(c3cccc(-c4ccccc4)c3)C2)CC1
AC50 [1]: 39.8 µM (inconclusive) | AC50 [4]: 12.6 µM (inconclusive)

COCCN1CN=C(Nc2nc3ccccc3s2)NC1
AC50 [1]: 11.2 µM (inconclusive)

Cc1cccc(CNc2ccnc(-c3ccccc3Cl)n2)c1
AC50 [2]: 0.794 µM (inconclusive)

COc1ccc(/C=N/NC(=O)c2cnccn2)cc1O
IC50 [5]: 85.6 µM (active)

CCN(CC)c1ccc(NC(=O)COc2ccc(-n3cnnn3)cc2)cc1
IC50 [5]: 63 µM (active)

CC(=O)NCCNc1nc(-c2ccc3c(c2)OCO3)nc2ccccc12
AC50 ([3]; read-out: AC50): 39.8 µM (inconclusive)

CC[C@H]1CN2CCc3cc(OC)c(OC)cc3[C@H]2C[C@@H]1C[C@H]1NCCc2c1[nH]c1ccc(O)cc21
AC50 [1]: 3.98 µM (inconclusive)

Cc1ccnc(Nc2nc(-c3ccc(O)cc3)cs2)c1
IC50 [5]: 105 µM (active)

CN(C)c1ccc(-c2nccc(NCCN3CCOCC3)n2)cc1
AC50 [1]: 39.8 µM (inconclusive) | AC50 ([3]; read-out: AC50): 15.8 µM (inconclusive) | AC50 [4]: 25.1 µM (inconclusive)

O=C(Nc1cccc(F)c1)c1cc(S(=O)(=O)N2CCOCC2)ccc1N1CCCC1
EC50 [10]: > 53 µM (inactive)

Cn1c(=O)[nH]c(=O)c2c1nc(NCCCO)n2CCCc1ccccc1
AC50 [2]: 12.6 µM (inconclusive)

CCc1cc(-c2n[nH]cc2-c2nc3ccccc3n2C)c(O)cc1O
IC50 [5]: 83.6 µM (active)

c1ccc(-c2cccc(N3CCC4(CCNCC4)CC3)c2)cc1
AC50 [1]: 39.8 µM (inconclusive)

O=C(O)Cc1c[nH]cn1 [IMIDAZOLE ACETIC ACID]
AC50 [4]: 31.6 µM (inconclusive)

COc1ccccc1NS(=O)(=O)c1cc(C(=O)NCCC(C)C)ccc1F
EC50 [10]: 8.2 µM (active)

NC1=NC(Nc2ccc(F)cc2F)=NC2(CCCCC2)N1
AC50 ([3]; read-out: AC50): 3.16 µM (inconclusive)

CCc1ccc(-c2csc(NC(=O)C3CCCO3)c2C(=O)OC(C)C)cc1 (centres undefined)
AC50 [4]: 28.2 µM (inconclusive)

COc1ncc2nc(-c3ccccc3)c(=O)n(C[C@H]3CCCO3)c2n1
AC50 [4]: 25.1 µM (inconclusive)

O=S(=O)(c1cccc(-c2nnc(-c3ccc(Br)cc3)o2)c1)N1CCCCCC1
AC50 ([3]; read-out: AC50): 11.2 µM (inconclusive)

CN(C)c1ccc(/C=C(\C#N)C(=O)OCC(=O)N(C)C2CCS(=O)(=O)C2)cc1 (centres undefined)
AC50 [6]: > 260 µM (inactive)
